Source: the kinase profiling compilation of Christmann-Franck et al. (2016)

How the values were obtained:
Test in all cases: KINOMEscan competition binding
Conditions in all cases: compound 10.0 µM
ACVR1 (human) = ACVR1 (human) (UniProt Q04771)
ACVR2A (human) = ACVR2A (human) (UniProt P27037)
AKT1 (human) = AKT1 (human) (UniProt P31749)
ALK (human) = ALK (human) (UniProt Q9UM73)
AURKC (human) = AURKC (human) (UniProt Q9UQB9)
CAMK1G (human) = CAMK1G (human) (UniProt Q96NX5)
CDC42BPG (human) = CDC42BPG (human) (UniProt Q6DT37)
CHEK2 (human) = CHEK2 (human) (UniProt O96017)
DYRK1B (human) = DYRK1B (human) (UniProt Q9Y463)
EPHA5 (human) = EPHA5 (human) (UniProt P54756)
EPHB1 (human) = EPHB1 (human) (UniProt P54762)
FGFR2 (human) = FGFR2 (human) (UniProt P21802)
GSK3A (human) = GSK3A (human) (UniProt P49840)
IGF1R (human) = IGF1R (human) (UniProt P08069)
KDR (human) = KDR (human) (UniProt P35968)
Chain of KDR (human) (P35968 whole entry, looked up): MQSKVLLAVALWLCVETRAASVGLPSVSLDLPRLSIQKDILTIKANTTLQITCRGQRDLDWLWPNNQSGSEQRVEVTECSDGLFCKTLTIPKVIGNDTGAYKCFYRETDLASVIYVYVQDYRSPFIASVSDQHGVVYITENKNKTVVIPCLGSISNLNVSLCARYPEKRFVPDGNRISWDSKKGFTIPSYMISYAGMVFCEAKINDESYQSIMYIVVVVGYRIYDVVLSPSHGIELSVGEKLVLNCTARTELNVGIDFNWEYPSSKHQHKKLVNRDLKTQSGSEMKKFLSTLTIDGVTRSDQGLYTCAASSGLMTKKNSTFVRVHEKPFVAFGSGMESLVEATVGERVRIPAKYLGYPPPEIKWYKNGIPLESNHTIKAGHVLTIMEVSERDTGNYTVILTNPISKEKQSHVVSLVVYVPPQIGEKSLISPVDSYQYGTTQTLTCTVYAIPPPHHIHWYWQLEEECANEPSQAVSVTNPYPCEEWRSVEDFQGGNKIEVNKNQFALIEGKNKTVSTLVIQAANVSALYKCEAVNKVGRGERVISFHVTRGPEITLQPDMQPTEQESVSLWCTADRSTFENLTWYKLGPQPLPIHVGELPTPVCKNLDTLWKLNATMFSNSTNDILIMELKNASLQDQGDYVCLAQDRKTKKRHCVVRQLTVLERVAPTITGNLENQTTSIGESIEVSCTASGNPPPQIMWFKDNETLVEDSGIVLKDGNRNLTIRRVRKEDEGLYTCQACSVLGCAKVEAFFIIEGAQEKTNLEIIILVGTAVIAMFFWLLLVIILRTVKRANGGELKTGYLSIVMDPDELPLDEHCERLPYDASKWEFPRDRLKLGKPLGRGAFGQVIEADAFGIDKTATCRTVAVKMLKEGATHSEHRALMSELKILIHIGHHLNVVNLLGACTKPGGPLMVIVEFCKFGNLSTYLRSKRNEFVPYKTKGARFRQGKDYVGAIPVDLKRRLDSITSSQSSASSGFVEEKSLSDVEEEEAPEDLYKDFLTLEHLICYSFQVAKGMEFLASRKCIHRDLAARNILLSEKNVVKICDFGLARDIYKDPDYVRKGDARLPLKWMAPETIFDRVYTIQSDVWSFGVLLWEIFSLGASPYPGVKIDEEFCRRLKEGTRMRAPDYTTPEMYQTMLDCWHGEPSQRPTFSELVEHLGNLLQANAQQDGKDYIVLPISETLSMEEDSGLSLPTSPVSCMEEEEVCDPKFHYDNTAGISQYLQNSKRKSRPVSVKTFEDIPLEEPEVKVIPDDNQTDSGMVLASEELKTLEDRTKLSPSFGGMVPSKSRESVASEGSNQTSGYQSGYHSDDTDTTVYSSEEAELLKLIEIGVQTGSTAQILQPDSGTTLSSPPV

[1] = system: KIT (human), P10721 [V559D]
Chain of KIT (human), P10721 [V559D] (P10721 whole entry V559D, looked up): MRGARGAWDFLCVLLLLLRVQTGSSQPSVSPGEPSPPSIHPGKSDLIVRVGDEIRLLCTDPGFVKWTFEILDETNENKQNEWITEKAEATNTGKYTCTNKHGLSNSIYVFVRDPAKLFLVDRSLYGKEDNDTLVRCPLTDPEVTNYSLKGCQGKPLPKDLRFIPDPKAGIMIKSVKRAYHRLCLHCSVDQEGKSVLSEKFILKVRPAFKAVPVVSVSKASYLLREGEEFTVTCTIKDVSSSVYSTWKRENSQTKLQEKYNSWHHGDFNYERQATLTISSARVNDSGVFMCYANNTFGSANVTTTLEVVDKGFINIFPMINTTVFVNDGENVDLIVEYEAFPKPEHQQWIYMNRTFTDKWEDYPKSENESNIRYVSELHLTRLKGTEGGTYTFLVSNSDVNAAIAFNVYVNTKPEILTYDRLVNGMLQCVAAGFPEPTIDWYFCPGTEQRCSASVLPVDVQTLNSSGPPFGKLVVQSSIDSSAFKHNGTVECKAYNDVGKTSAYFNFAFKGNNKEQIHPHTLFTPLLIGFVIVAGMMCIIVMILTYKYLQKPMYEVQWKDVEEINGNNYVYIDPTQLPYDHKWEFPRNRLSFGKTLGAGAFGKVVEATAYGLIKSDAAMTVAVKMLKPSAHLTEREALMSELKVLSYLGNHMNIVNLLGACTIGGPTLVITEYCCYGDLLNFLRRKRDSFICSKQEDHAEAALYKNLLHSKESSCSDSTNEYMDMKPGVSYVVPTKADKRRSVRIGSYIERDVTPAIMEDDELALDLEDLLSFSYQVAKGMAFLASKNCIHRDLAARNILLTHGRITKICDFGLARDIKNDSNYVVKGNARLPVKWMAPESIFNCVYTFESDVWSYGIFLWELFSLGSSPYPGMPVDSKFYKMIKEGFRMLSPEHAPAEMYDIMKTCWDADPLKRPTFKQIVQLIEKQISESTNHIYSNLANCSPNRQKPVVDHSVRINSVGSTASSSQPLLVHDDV

MAP4K4 (human) = MAP4K4 (human) (UniProt O95819)
MAPK10 (human) = MAPK10 (human) (UniProt P53779)
MAPK13 (human) = MAPK13 (human) (UniProt O15264)
MAPK9 (human) = MAPK9 (human) (UniProt P45984)
MARK3 (human) = MARK3 (human) (UniProt P27448)
MKNK2 (human) = MKNK2 (human) (UniProt Q9HBH9)
MLTK (human) = MLTK (human) (UniProt Q9NYL2)
NEK6 (human) = NEK6 (human) (UniProt Q9HC98)
NEK9 (human) = NEK9 (human) (UniProt Q8TD19)
NTRK1 (human) = NTRK1 (human) (UniProt P04629)
NTRK2 (human) = NTRK2 (human) (UniProt Q16620)
PIK3C2B (human) = PIK3C2B (human) (UniProt O00750)
PIK3CB (human) = PIK3CB (human) (UniProt P42338)
Chain of PIK3CB (human) (P42338 whole entry, looked up): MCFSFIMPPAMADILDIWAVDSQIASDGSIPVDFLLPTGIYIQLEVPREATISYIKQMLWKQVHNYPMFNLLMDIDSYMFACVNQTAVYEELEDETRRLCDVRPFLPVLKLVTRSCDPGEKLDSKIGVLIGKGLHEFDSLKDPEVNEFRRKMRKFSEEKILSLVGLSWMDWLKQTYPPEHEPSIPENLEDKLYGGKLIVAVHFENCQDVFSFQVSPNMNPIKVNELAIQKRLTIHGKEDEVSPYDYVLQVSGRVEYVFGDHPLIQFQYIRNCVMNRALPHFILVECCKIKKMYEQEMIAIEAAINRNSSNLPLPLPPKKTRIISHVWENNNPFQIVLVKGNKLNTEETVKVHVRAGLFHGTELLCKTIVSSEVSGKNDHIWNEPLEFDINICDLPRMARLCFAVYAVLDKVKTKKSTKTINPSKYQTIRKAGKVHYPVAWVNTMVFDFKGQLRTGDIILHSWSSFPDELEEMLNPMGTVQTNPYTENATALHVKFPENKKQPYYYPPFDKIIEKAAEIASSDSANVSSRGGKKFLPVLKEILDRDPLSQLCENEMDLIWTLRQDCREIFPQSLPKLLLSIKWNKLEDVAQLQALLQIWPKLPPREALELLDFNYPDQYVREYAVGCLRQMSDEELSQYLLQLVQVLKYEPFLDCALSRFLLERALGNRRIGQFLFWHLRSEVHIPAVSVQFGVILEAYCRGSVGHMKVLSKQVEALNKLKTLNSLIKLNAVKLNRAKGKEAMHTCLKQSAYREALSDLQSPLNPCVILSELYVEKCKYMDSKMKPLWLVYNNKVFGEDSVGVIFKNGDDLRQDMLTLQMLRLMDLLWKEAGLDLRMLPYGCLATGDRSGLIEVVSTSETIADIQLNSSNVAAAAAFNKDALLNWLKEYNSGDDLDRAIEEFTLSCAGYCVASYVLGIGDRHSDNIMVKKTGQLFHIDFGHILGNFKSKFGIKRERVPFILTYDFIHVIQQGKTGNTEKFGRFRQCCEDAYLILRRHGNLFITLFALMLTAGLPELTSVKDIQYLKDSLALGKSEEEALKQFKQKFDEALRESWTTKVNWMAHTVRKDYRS

PIM3 (human) = PIM3 (human) (UniProt Q86V86)
PTK6 (human) = PTK6 (human) (UniProt Q13882)
RIOK2 (human) = RIOK2 (human) (UniProt Q9BVS4)
RIPK4 (human) = RIPK4 (human) (UniProt P57078)
RPS6KA6 KD1 (human) = RPS6KA6 KD1 (human) (UniProt Q9UK32)
SRPK3 (human) = SRPK3 (human) (UniProt Q9UPE1)
Chain of SRPK3 (human) (Q9UPE1 whole entry, looked up): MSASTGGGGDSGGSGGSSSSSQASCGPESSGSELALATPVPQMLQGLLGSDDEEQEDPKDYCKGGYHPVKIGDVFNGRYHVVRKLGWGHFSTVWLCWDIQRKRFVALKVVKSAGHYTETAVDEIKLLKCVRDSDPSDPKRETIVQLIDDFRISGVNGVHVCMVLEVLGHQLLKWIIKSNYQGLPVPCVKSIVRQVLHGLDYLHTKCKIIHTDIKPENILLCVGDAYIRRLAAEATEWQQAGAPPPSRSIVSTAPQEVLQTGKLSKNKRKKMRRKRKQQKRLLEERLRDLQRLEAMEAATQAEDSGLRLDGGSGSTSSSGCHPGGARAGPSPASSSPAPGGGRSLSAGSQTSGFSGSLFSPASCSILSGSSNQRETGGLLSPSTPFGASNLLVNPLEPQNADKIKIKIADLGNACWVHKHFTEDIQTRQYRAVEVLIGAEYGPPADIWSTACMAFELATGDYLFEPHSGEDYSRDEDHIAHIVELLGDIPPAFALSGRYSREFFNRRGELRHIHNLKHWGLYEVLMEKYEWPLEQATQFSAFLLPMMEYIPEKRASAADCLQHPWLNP

TAOK1 (human) = TAOK1 (human) (UniProt Q7L7X3)
TSSK1B (human) = TSSK1B (human) (UniProt Q9BXA7)
TXK (human) = TXK (human) (UniProt P42681)
WEE2 (human) = WEE2 (human) (UniProt P0C1S8)
YES1 (human) = YES1 (human) (UniProt P07947)
Chain of YES1 (human) (P07947 whole entry, looked up): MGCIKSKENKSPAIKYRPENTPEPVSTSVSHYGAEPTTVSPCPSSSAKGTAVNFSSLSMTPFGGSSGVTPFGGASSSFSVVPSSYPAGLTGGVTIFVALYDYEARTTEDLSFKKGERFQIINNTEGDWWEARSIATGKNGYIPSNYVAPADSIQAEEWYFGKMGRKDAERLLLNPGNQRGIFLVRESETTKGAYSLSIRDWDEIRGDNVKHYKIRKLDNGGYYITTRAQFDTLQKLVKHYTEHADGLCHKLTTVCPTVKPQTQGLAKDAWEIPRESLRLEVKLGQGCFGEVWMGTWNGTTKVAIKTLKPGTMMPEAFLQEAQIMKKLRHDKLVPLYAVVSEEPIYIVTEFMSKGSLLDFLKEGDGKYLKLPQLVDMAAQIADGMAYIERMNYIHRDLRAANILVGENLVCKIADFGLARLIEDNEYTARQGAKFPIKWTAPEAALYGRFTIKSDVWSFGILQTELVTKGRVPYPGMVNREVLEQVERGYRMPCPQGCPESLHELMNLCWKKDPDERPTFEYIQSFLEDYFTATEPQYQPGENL

Compound	kinase still bound, per cent of control (ACVR1 (human)) [%]	kinase still bound, per cent of control (ACVR2A (human)) [%]	kinase still bound, per cent of control (AKT1 (human)) [%]	kinase still bound, per cent of control (ALK (human)) [%]	kinase still bound, per cent of control (AURKC (human)) [%]	kinase still bound, per cent of control (CAMK1G (human)) [%]	kinase still bound, per cent of control (CDC42BPG (human)) [%]	kinase still bound, per cent of control (CHEK2 (human)) [%]	kinase still bound, per cent of control (DYRK1B (human)) [%]	kinase still bound, per cent of control (EPHA5 (human)) [%]	kinase still bound, per cent of control (EPHB1 (human)) [%]	kinase still bound, per cent of control (FGFR2 (human)) [%]	kinase still bound, per cent of control (GSK3A (human)) [%]	kinase still bound, per cent of control (IGF1R (human)) [%]	kinase still bound, per cent of control (KDR (human)) [%]	kinase still bound, per cent of control [1] [%]	kinase still bound, per cent of control (MAP4K4 (human)) [%]	kinase still bound, per cent of control (MAPK10 (human)) [%]	kinase still bound, per cent of control (MAPK13 (human)) [%]	kinase still bound, per cent of control (MAPK9 (human)) [%]	other results
N#Cc1c(NC(=O)c2cccc3ccccc23)sc2c1CCCC2	64	69	94	100	87	90	81	84	89	89	91	100	72	76	96	60	66	0.95	46	4.8	kinase still bound, per cent of control (MARK3 (human)): 89%; kinase still bound, per cent of control (MKNK2 (human)): 92%; kinase still bound, per cent of control (MLTK (human)): 87%; kinase still bound, per cent of control (NEK6 (human)): 92%; kinase still bound, per cent of control (NEK9 (human)): 70%; kinase still bound, per cent of control (NTRK1 (human)): 100%; kinase still bound, per cent of control (NTRK2 (human)): 100%; kinase still bound, per cent of control (PIK3C2B (human)): 100%; kinase still bound, per cent of control (PIK3CB (human)): 100%; kinase still bound, per cent of control (PIM3 (human)): 100%; kinase still bound, per cent of control (PTK6 (human)): 46%; kinase still bound, per cent of control (RIOK2 (human)): 91%; kinase still bound, per cent of control (RIPK4 (human)): 96%; kinase still bound, per cent of control (RPS6KA6 KD1 (human)): 70%; kinase still bound, per cent of control (SRPK3 (human)): 100%; kinase still bound, per cent of control (TAOK1 (human)): 100%; kinase still bound, per cent of control (TSSK1B (human)): 100%; kinase still bound, per cent of control (TXK (human)): 100%; kinase still bound, per cent of control (WEE2 (human)): 70%; kinase still bound, per cent of control (YES1 (human)): 78%
C=CC(=O)Nc1cccc(Oc2nc(Nc3ccc(N4CCN(C)CC4)cc3OC)ncc2Cl)c1	100	100	100	0.7	4.5	100	100	8.8	17	100	100	100	100	7.4	100	26	100	13	100	100	kinase still bound, per cent of control (MARK3 (human)): 7.8%; kinase still bound, per cent of control (MKNK2 (human)): 2%; kinase still bound, per cent of control (MLTK (human)): 100%; kinase still bound, per cent of control (NEK6 (human)): 9%; kinase still bound, per cent of control (NEK9 (human)): 100%; kinase still bound, per cent of control (NTRK1 (human)): 100%; kinase still bound, per cent of control (NTRK2 (human)): 100%; kinase still bound, per cent of control (PIK3C2B (human)): 100%; kinase still bound, per cent of control (PIK3CB (human)): 100%; kinase still bound, per cent of control (PIM3 (human)): 100%; kinase still bound, per cent of control (PTK6 (human)): 100%; kinase still bound, per cent of control (RIOK2 (human)): 12%; kinase still bound, per cent of control (RIPK4 (human)): 100%; kinase still bound, per cent of control (RPS6KA6 KD1 (human)): 100%; kinase still bound, per cent of control (SRPK3 (human)): 8.4%; kinase still bound, per cent of control (TAOK1 (human)): 100%; kinase still bound, per cent of control (TSSK1B (human)): 100%; kinase still bound, per cent of control (TXK (human)): 16%; kinase still bound, per cent of control (WEE2 (human)): 100%; kinase still bound, per cent of control (YES1 (human)): 100%
